The test system of one assay is mouse cornea. Put plainly: mouse corneal pocket model of angiogenesis. Format: in vivo. On the procedure: To confirm the angiogenic activity of hedgehog in another well accepted model of angiogenesis, we tested the ability of hedgehog protein to induce neovascularization in the mouse corneal model pocket model of angiogenesis.
Animals were anesthetized by pentobarbital intraperitoneal injection (160 mg/kg). Corneal pockets were created in the eyes of each mouse and a 0.34×0.34 mm sucrose albumin sulfate (Bukh Meditec, Vaerlose, DK) pellet coated with hydron polymer type NCC (Interferon Sciences, New Brunswick, N.J.) containing 1 of the agents indicated below was implanted into the corneal pocket. […] mice were divided into 5 groups: control buffer alone; VEGF 300 ng/pellet; Myr-Shh vehicle alone; Myr-Shh 1.5 microg/pellet […]; Myr-Shh+VEGF (1.5 microg/pellet +300 ng/pellet, respectively). Pellets were positioned 1.0 mm from the corneal limbus, and erythromycin ophthalmic ointment (E. Fourera) was applied to each operated eye. The corneas of all mice were routinely examined by slit-lamp biomicroscopy on postoperative day 6 after pellet implantation.
On the same day vessel length and corneal circumferential neovascularity (in degrees) were measured. After completing these measurements, C57BL/6J mice received an intravenous injection of […] of BS-1 lectin FITC-conjugated (Vector Laboratories, Burlingame, Calif.). Thirty minutes later, the animals were sacrificed. The eyes were enucleated and fixed in 1% paraformaldehyde solution. After fixation, the corneas were placed on glass slides and examined by fluorescence microscopy.
To determine the mechanism by which Shh induces angiogenesis both Shh and VEGF-stimulated corneas (see Example 3) were excised and X-gal stained as described in Example 1 after fixation of the whole eye for 1 hour in 1% paraformaldehyde followed by enucleation and fixation of the corneal hemisphere in 1% paraformaldehyde for 30 minutes. […] Endothelial cell immunostaining was done with a rat monoclonal antibody against mouse CD-31 (Pharmigen, San Diego, Calif.) followed by a biotinylated goat anti-rat immunoglobulin secondary antibody. Smooth muscle cells and pericytes were identified with a mouse monoclonal antibody against SM a-actin conjugated with alkaline-phosphatase (Sigma, St. Louis, Mo.) and fibroblasts were identified using an anti-vimentin antibody (Sigma, St. Louis, Mo.).
We then immunostained the Shh-induced corneas with a rabbit polyclonal anti-VEGF antibody (Santa Cruz Biotechnology, Santa Cruz, Calif.) with a biotinylated goat anti-rabbit immunoglobulin as secondary antibody.

In assay [1] the test system is normal human fibroblasts (CCD37). As to the kind of experiment: normal human fibroblasts (CCD37), competitive RT-PCR and VEGF165 ELISA. Format: cell-based. On the procedure:
To determine if hedgehog can directly induce fibroblasts to produce VEGF or other angiogenic factors, we treated normal human fibroblasts (CCD37) with Myr-Shh and the ability of fibroblasts to respond was evaluated by competitive RT-PCR for ptc 1 and several angiogenic growth factors. Total RNA was prepared from cells treated as described above using Trizol (Life Technologies, Rockville, Md.). Four micrograms of total RNA was used to prepare cDNA using the SuperScriptTM preamplification system (Cat. No. 18089-011, Life Technologies, Rockville, Md.). The PCR reaction using buffer reagents from the SuperScriptTM preamplification system (Life Technologies, Rockville, Md.) was quantitated with […] competitive primers (Ambion). Primers for the amplification of Ptc 1 were [NT] ID NO: 38) and [NT] ID NO: 39) which are based on ptc1 cDNA sequence (GenBank Accession Number U46155). All amplification for Ptc1 were done with 25 cycles of 94° C. for 30 sec; 55° C. for 1 min; 72° C. for 1 min. The cDNA from the same cells was also used as a template for VEGF, bFGF, Angiopoietin 1, and Angiopoietin II amplification. The following primer pairs and PCR cycles were used: […] [NT] ID NO: 40) and [NT] ID NO: 41) which are based on the human VEGF cDNA sequence (GenBank Accession Number E15157). VEGF product was amplified with 30 cycles of 94° C. for 30 sec; 62° C. for 1 min; 72° C. for 1 min; bFGF: [NT] ID NO: 42) and [NT] ID NO: 43) which is based on the human bFGF cDNA sequence (GenBank Accession Number M27968). bFGF product was amplified with 25 cycles of 94° C. for 30 sec; 62° C. for 1 min; 72° C. for 1 min; Angiopoietin I [NT] ID NO: 44) and [NT] ID NO: 45) which is based on human Angiopoietin I cDNA sequence (GenBank Accession Number U83508). Angiopoietin I product was amplified with 25 cycles of 94° C. for 30 sec; 64° C. for 90 sec; Angiopoietin II: [NT] ID NO:46) and [NT] ID NO: 47) which are based on human Angiopoietin II cDNA sequence (GenBank Accesion Number AB009865). Angiopoietin II product was amplified with 32 cycles of 94° C. for 30 sec; 64° C. for 90 sec. As internal control for sample preparation, gel loading, and random variations in RT-PCR, 18S rRNA primers and 18S rRNA competimers (Ambion, Austin, Tex.), used to modify 18S cDNA amplification efficiency, were included in each PCR reaction with target gene-specific primers. The linear range of amplification and optimal 18S primer/Competimer ratio was determined for each target gene following the manufacturer's recommendations (Ambion, Austin, Tex.). […] VEGF 121, 165, and 189 upregulation began at 12 hours and was maximal after 48 hours of incubation of the cells with Shh. […] Cells were stimulated with recombinant human myristolated Shh protein as described above. At harvest, the cell conditioned media was collected, centrifuged to remove cell debris (15 minutes at 1500×g) and production of VEGF165 protein was evaluated by using an ELISA kit (Quantikine human VEGF, R&D Systems, Minneapolis, Minn.).

The subject of assay [2] is human umbilical vein and microvascular endothelial cells. Put plainly: response of endothelial cells to Hh. Format: cell-based.
Assay [3] relates to vascular smooth muscle cells (PAC 1), normal human lung fibroblasts, normal prostate stromal cells. As to the kind of experiment: ptc 1 RT-PCR in smooth muscle cells, lung fibroblasts and prostate stromal cells. Format: cell-based. Particulars: 1 ug/ml for 2 days, vs vehicle. On the procedure:
Eighty five percent confluent monolayers of vascular smooth muscle cells (PAC 1) were induced for 2 days with 1 ug/ml of myrShh or an equivalent volume of vehicle in normal media (M 199 complete media with 10% fetal bovine serum). For comparison, primary normal human lung fibroblasts and normal prostate stromal cells were grown in complete FBM and similarly stimulated (Clonetics/Bio-Whittaker, Walkersville, Md.). The cells were harvested and RNA from the cells was prepared and analysed by RT-PCR as above. […] In addition, hedgehog protein induced DNA synthesis in quiescent vascular SMCs and human fibroblasts. PAC-1 (Rothman et al., 1992), WKY (Lemire et al., 1994), primary pulmonary artery SMCs or aortic SMCs (Clonetics/Bio-Whittaker, Walkersville, Md.) were plated (5×10^3/well) in 96 well plates and allowed to adhere for 2-3 hours in 0.18 ml of complete media (M 199 with 10% fetal bovine serum for PAC 1 cells, DMEM with 10% fetal bovine serum for WKY cells or smGM-2 for primary human pulmonary artery or aortic SMCs). The cells were then starved for 18-24 hours in complete media with 0.5% fetal bovine serum. […] 3H-thymidine uptake into cells was determined by scintillation counting using a 1205 Betaplate counter (Wallac, Gaithersburg, Md.).

Assay [4] relates to Shh signaling pathway in MEFs homozygous for ptc-lacZ (cell line 23-1). Put plainly: β-galactosidase activity in ptc-lacZ homozygous mouse embryonic fibroblasts. Format: cell-based. Conditions: normalized to whole protein content.
Text: These studies involve the use of mouse embryonic fibroblasts (MEFs) that were generated by trypsin digestion of E8.5 embryos from patched (ptc) ±matings. […] Thus, in these ptc−/− embryos, the Shh signaling pathway is activated in many tissues, and the lacZ gene product β-galactosidase is expressed in all of those tissues as a report of pathway activation.
The Shh signaling pathway can be activated in these fibroblasts in cell culture, and that the level of β-galactosidase activity does reflect the degree of pathway activation. The MEF line 23-4 is heterozygous for ptc-lacZ, and thus contains one functional ptc allele capable of maintaining a repressed state of the pathway, but will express lacZ when the pathway is activated by addition of Shh protein.
Setting [5] is: pellet: Myr-Shh 1.5 microg or VEGF 300 ng.

On to “Myr-Shh: recombinant human myristolated Shh protein (myristylated Sonic hedgehog)”, for which the “X-gal staining (Ptc 1 expression) of corneas” value with mouse cornea (Ptc1-lacZ corneas) is “strong X-gal staining”. Moreover, the “VEGF immunostaining of corneas” value with mouse cornea (anti-VEGF antibody) is “VEGF protein is in the fibroblasts and matrix immediately adjacent to the neovascular area”. Moreover, in the assay on mouse cornea (compared with VEGF), the density of vessels result was “slightly lower”. Further, in the assay on mouse cornea (setting [5]), the maximum vessel lengths is 1020+200 um and the “vessel diameters (mean)” value is on record as 33±17 um. Also, the neovascular growth result in the assay with mouse cornea (pellet: Myr-Shh 1.5 microg or VEGF 300 ng, day 6) is “significant neovascular growth”. Moreover, the “vessel length, circumferential neovascularity and diameter of the lumens” value with mouse cornea (summary) is “statistically significant increase”. Besides, in assay [1], the “start of VEGF 121, 165 and 189 upregulation” value was determined as 12 h; the “time of maximal VEGF 121, 165 and 189 upregulation” value turned out to be 48 h; the “time of maximal increase of Ang-1 and Ang-2” value turned out to be 36 h. The “VEGF mRNA isoforms (VEGF121, 165, 189)” value in assay [1] (RT-PCR) is “strongly upregulated”. The “bFGF mRNA” value in assay [1] (any time-points) is “No bFGF upregulation was detectable”. In addition, in assay [1] (at 72 hours), the “VEGF production (VEGF165 protein in cell media, ELISA)” value was “significant upregulation”. Moreover, the “Ang-1 and Ang-2 mRNA” value in assay [1] (quantitative RT-PCR) is recorded as “upregulation of both genes”. Besides, in assay [1] (time course), the Ptc1 gene expression entry is recorded as “upregulating the Ptc1 gene”. The “response to Hh” value in assay [2] was “Neither human umbilical vein and microvascular endothelial cells respond”. Besides, the “ptc 1 expression” value in assay [3] is “increased ptc 1 expression”.

As for `C[C@H]1CC[C@]2(NC1)O[C@H]1C[C@H]3[C@@H]4CC[C@H]5C[C@@H](O)CC[C@]5(C)[C@H]4CC[C@]3(C)[C@H]1[C@@H]2C` [tomatidine], the β-galactosidase activity result in assay [4] was “cannot be achieved”.

The values above are taken from patent US7498304B2, “Angiogenesis-modulating compositions and uses” (Curis, Inc., priority 2002, dated 2009).
